# Key:
# sugar beet = test: Test B pre/postemergence sugar beet; format: in vivo, Beta vulgaris; conditions: Preemergence, scale of 0 to 10 where 0 is no effect and 10 is complete control
# Procedure, shortened: (§1)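 Response is a visual 0-to-10 score relative to untreated plants, where 0 means no effect and 10 means complete control, taken twelve to sixteen days after application. Treatments went onto soil at planting and onto foliage of 1- to 4-leaf plants, using a surfactant-containing non-phytotoxic solvent.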
# bamyardgrass = test: Test B flood test barnyardgrass; format: in vivo, Echinochloa crus-galli
# Description: (§2) At the same time, these crop and weed species were also treated with postemergence applications of test chemicals formulated in the same manner. Plants ranged in height from 2 to 18 cm (1- to 4-leaf stage) for postemergence treatments. Plant species in the flood test consisted of rice (Oryza sativa), smallflower flatsedge (Cyperus difformis), duck salad (Heteranthera limosa) and bamyardgrass (Echinochloa crus-galli) grown to the 2-leaf stage for testing. Treated plants and controls were maintained in a greenhouse for twelve to sixteen days, after which all species were compared to controls and visually evaluated. Plant response ratings, summarized in Table B, are based on a scale of 0 to 10 where 0 is no effect and 10 is complete control. A dash (−) response means no test result.
# surinam grass = test: Test B pre/postemergence surinam grass; format: in vivo, Brachiaria decumbens; conditions: Preemergence
# Procedure, shortened: as §1
# wild oat = test: Test B pre/postemergence wild oat; format: in vivo, Avena fatua; conditions: Preemergence, scale of 0 to 10 where 0 is no effect and 10 is complete control
# Procedure, shortened: as §1
# purple nutsedge = test: Test B pre/postemergence purple nutsedge; format: in vivo, Cyperus rotundus; conditions: Preemergence, Rate 62 g/ha; scale of 0 to 10 where 0 is no effect and 10 is complete control
# Procedure, shortened: as §1
# wheat = test: Test B pre/postemergence wheat; format: in vivo, Triticum aestivum; conditions: Preemergence, scale of 0 to 10 where 0 is no effect and 10 is complete control
# Procedure, shortened: as §1
# velvetleaf = test: Test B pre/postemergence velvetleaf; format: in vivo, Abutilon theophrasti; conditions: Preemergence, scale of 0 to 10 where 0 is no effect and 10 is complete control
# Procedure, shortened: as §1
# cocklebur = test: Test B pre/postemergence cocklebur; format: in vivo, Xanthium strumarium; conditions: Preemergence
# Procedure, shortened: as §1
# blackgrass = test: Test B pre/postemergence blackgrass; format: in vivo, Alopecurus myosuroides; conditions: Preemergence
# Procedure, shortened: as §1
# pigweed = test: Test B pre/postemergence pigweed; format: in vivo, Amaranthus retroflexus; conditions: Preemergence, scale of 0 to 10 where 0 is no effect and 10 is complete control
# Procedure, shortened: as §1
# crabgrass = test: Test B pre/postemergence crabgrass; format: in vivo, Digitaria sanguinalis; conditions: Preemergence
# Procedure, shortened: as §1
# giant foxtail = test: Test B pre/postemergence giant foxtail; format: in vivo, Setaria faberii; conditions: Preemergence, scale of 0 to 10 where 0 is no effect and 10 is complete control
# Procedure, shortened: as §1
# corn = test: Test B pre/postemergence corn; format: in vivo, Zea mays; conditions: Preemergence
# Procedure, shortened: as §1
# smallflower flatsedge = test: Test B flood test smallflower flatsedge; format: in vivo, Cyperus difformis
# Description: as §2
# rape = test: Test B pre/postemergence rape; format: in vivo, Brassica napus; conditions: Preemergence, scale of 0 to 10 where 0 is no effect and 10 is complete control
# Procedure, shortened: as §1
# bedstraw = test: Test B pre/postemergence bedstraw; format: in vivo, Galium aparine; conditions: Preemergence
# Procedure, shortened: as §1
# soybean = test: Test B pre/postemergence soybean; format: in vivo, Glycine max; conditions: Preemergence, scale of 0 to 10 where 0 is no effect and 10 is complete control
# Procedure, shortened: as §1
# duck salad = test: Test B flood test duck salad; format: in vivo, Heteranthera limosa
# Description: as §2
# morningglory = test: Test B pre/postemergence morningglory; format: in vivo, Ipomoea hederacea; conditions: Preemergence, scale of 0 to 10 where 0 is no effect and 10 is complete control
# Procedure, shortened: as §1
# [1] = Rate 62 g/ha, flood test species, Pre-emergence, visual evaluation after twelve to sixteen days
# [2] = Rate 125 g/ha, under heading Pre-emergence, flood test species, visual evaluation after twelve to sixteen days
# [3] = Rate 250 g/ha, Pre-emergence (flood test species), scale 0 to 10, 0 is no effect, 10 is complete control
# [4] = Rate 500 g/ha, Pre-emergence section of Table B, 0 to 10 scale (0 no effect, 10 complete control)
# [5] = Rate 62 g/ha, scale of 0 to 10 where 0 is no effect and 10 is complete control
# [6] = Rate 125 g/ha, scale of 0 to 10 where 0 is no effect and 10 is complete control
# [7] = Rate 250 g/ha, scale 0 to 10 (0 no effect, 10 complete control)
# [8] = Rate 500 g/ha, scale of 0 to 10 where 0 is no effect and 10 is complete control
structure (smiles),measurement,setting,value
CC(C)N(C(=O)n1oc(=O)n(C(C)C2CCC2)c1=O)c1ccc(Cl)cc1 (centres unmarked) [Compound 701],Sugarbeets plant response rating,sugar beet; Rate 62 g/ha,0
same,"Plant response rating, Sugarbeets",sugar beet; Rate 125 g/ha,0
same,"Plant response rating, Barnyardgrass (0 to 10 scale, 0 is no effect, 10 is complete control)",bamyardgrass; [1],0
same,"Barnyardgrass plant response rating (0 to 10 scale, 0 is no effect, 10 is complete control)",bamyardgrass; [2],0
same,Barnyardgrass plant response rating,bamyardgrass; [3],0
same,Barnyardgrass plant response rating,bamyardgrass; [4],0
same,B. signalgrass plant response rating,surinam grass; [5],0
same,"Plant response rating, B. signalgrass",surinam grass; [6],0
same,"Plant response rating, B. signalgrass",surinam grass; [7],0
same,"Plant response rating, B. signalgrass",surinam grass; [8],0
same,Wild oats plant response rating,wild oat; Rate 62 g/ha,0
same,"Plant response rating, Wild oats",wild oat; Rate 125 g/ha,0
same,Nutsedge plant response rating,purple nutsedge,0
same,Wheat plant response rating,wheat; Rate 62 g/ha,0
same,"Plant response rating, Wheat",wheat; Rate 125 g/ha,0
same,Velvetleaf plant response rating,velvetleaf; Rate 62 g/ha,0
same,"Plant response rating, Velvetleaf",velvetleaf; Rate 125 g/ha,0
same,Cocklebur plant response rating,cocklebur; [5],0
same,"Plant response rating, Cocklebur",cocklebur; [6],0
same,"Plant response rating, Cocklebur",cocklebur; [7],0
same,"Plant response rating, Cocklebur",cocklebur; [8],0
same,Blackgrass plant response rating,blackgrass; [5],0
same,"Plant response rating, Blackgrass",blackgrass; [6],2
same,"Plant response rating, Blackgrass",blackgrass; [7],2
same,"Plant response rating, Blackgrass",blackgrass; [8],6
same,Redroot pigweed plant response rating,pigweed; Rate 62 g/ha,0
same,"Plant response rating, Redroot pigweed",pigweed; Rate 125 g/ha,0
same,Crabgrass plant response rating,crabgrass; [5],0
same,"Plant response rating, Crabgrass",crabgrass; [6],10
same,"Plant response rating, Crabgrass",crabgrass; [7],10
same,Giant foxtail plant response rating,giant foxtail; Rate 62 g/ha,6
same,"Plant response rating, Giant foxtail",giant foxtail; Rate 125 g/ha,10
same,Corn plant response rating,corn; [5],0
same,"Plant response rating, Corn",corn; [6],0
same,"Plant response rating, Corn",corn; [7],0
same,"Plant response rating, S. Flatsedge (0 to 10 scale, 0 is no effect, 10 is complete control)",smallflower flatsedge; [1],0
same,"S. Flatsedge plant response rating (0 to 10 scale, 0 is no effect, 10 is complete control)",smallflower flatsedge; [2],0
same,S. Flatsedge plant response rating,smallflower flatsedge; [3],0
same,S. Flatsedge plant response rating,smallflower flatsedge; [4],0
same,Rape plant response rating,rape; Rate 62 g/ha,0
same,"Plant response rating, Rape",rape; Rate 125 g/ha,0
same,Bedstraw plant response rating,bedstraw; [5],0
same,"Plant response rating, Bedstraw",bedstraw; [6],0
same,"Plant response rating, Bedstraw",bedstraw; [7],0
same,"Plant response rating, Bedstraw",bedstraw; [8],0
same,Soybean plant response rating,soybean; Rate 62 g/ha,0
same,"Plant response rating, Soybean",soybean; Rate 125 g/ha,0
same,"Plant response rating, Ducksalad (0 to 10 scale, 0 is no effect, 10 is complete control)",duck salad; [1],0
same,"Ducksalad plant response rating (0 to 10 scale, 0 is no effect, 10 is complete control)",duck salad; [2],0
same,Ducksalad plant response rating,duck salad; [3],0
same,Ducksalad plant response rating,duck salad; [4],3
same,Morningglory plant response rating,morningglory; Rate 62 g/ha,0
same,"Plant response rating, Morningglory",morningglory; Rate 125 g/ha,0

# Reference: patent publication US6737383B1, “Herbicidal oxadiazolidines” (priority 1999, dated 2004)
